Values after ≈ are worked out from the molar mass of the structure shown. Active and inactive are the calls of the source. No cut-off for these calls is given here.
How the values were obtained:
[1] = target: Gap junction beta-2 protein (Homo sapiens) (UniProt P29033); experiment: Inhibition of recombinant human Cx26 expressed in Escherichia coli LB2003 assessed as reduction in cell growth measured after 18 hrs
HeLa [2] = experiment: Cytotoxicity against human HeLa cells assessed as reduction in cell viability up to 100 ug/ml after 24 hrs by MTT assay; type: cell-based
[3] = target: Gap junction beta-2 protein (Homo sapiens) (UniProt P29033); experiment: Inhibition of recombinant human Cx26 expressed in Escherichia coli LB2003 assessed as reduction in cell growth at 100 uM measured after 18 hrs
HeLa [4] = experiment: Cytotoxicity against human HeLa cells assessed as reduction in cell viability at 100 ug/ml after 24 hrs by MTT assay relative to control; type: cell-based
Cx26 = experiment: Ratio of compound effect for cytotoxicity against human HeLa cells to IC50 for recombinant human Cx26 expressed in Escherichia coli LB2003; type: toxicity
Staphylococcus aureus = experiment: Toxicity against Staphylococcus aureus ATCC 25923 measured after 18 to 24 hrs; type: organism-based; conditions: in vivo

| SMILES | Imax [1] [%] | Activity (HeLa [2]) | inhibition [3] | Activity (HeLa [4]) [%] | selectivity ratio (Cx26) | MIC (Staphylococcus aureus) [µg/mL] |
| --- | --- | --- | --- | --- | --- | --- |
| CO[C@@H]1[C@@H](O[C@@H]2O[C@H](COCc3ccccc3)[C@@H](OCc3ccccc3)[C@H](N)[C@H]2OC)[C@H](N)C[C@H](N)[C@H]1O[C@H]1O[C@H](CN)[C@@H](OC)[C@H](OC)[C@H]1OC | 99 | Non-Toxic |  |  |  |  |
| CO[C@@H]1[C@@H](O[C@@H]2O[C@H](CO)[C@@H](O)[C@H](N)[C@H]2OC)[C@H](N)C[C@H](N)[C@H]1O[C@H]1O[C@H](CN)[C@@H](OC)[C@H](OC)[C@H]1OC |  | Non-Toxic | inactive |  |  |  |
| COc1ccc(COC[C@H]2O[C@@H](O[C@@H]3[C@@H](O)[C@H](O[C@H]4O[C@H](CN)[C@@H](O)[C@H](O)[C@H]4O)[C@@H](N)C[C@H]3N)[C@H](O)[C@@H](N)[C@@H]2OCc2ccc(OC)cc2)cc1 | 94 | Non-Toxic |  |  |  |  |
| NC[C@H]1O[C@H](O[C@H]2[C@H](O)[C@@H](O[C@@H]3O[C@H](COCc4cccc(-c5ccccc5)c4)[C@@H](OCc4cccc(-c5ccccc5)c4)[C@H](N)[C@H]3O)[C@H](N)C[C@@H]2N)[C@H](O)[C@@H](O)[C@@H]1O | 94 |  |  | 40 to 60 | ≤ 20 | 16 (≈ 19.6 µM) |
| NC[C@H]1O[C@H](O[C@H]2[C@H](O)[C@@H](O[C@@H]3O[C@H](COCc4ccccc4)[C@@H](OCc4ccccc4)[C@H](N)[C@H]3O)[C@H](N)C[C@@H]2N)[C@H](O)[C@@H](O)[C@@H]1O | 99 | Non-Toxic |  |  |  |  |
| CCCCCCCCOC[C@H]1O[C@@H](O[C@@H]2[C@@H](O)[C@H](O[C@H]3O[C@H](CN)[C@@H](O)[C@H](O)[C@H]3O)[C@@H](N)C[C@H]2N)[C@H](O)[C@@H](N)[C@@H]1OCCCCCCCC | 99 | Non-Toxic |  |  |  |  |
| NC[C@H]1O[C@H](O[C@H]2[C@H](O)[C@@H](O[C@@H]3O[C@H](COCc4ccc(F)cc4)[C@@H](OCc4ccc(F)cc4)[C@H](N)[C@H]3O)[C@H](N)C[C@@H]2N)[C@H](O)[C@@H](O)[C@@H]1O | 94 |  |  | 40 to 60 | ≤ 20 |  |
| CCCCOC[C@H]1O[C@@H](O[C@@H]2[C@@H](O)[C@H](O[C@H]3O[C@H](CN)[C@@H](O)[C@H](O)[C@H]3O)[C@@H](N)C[C@H]2N)[C@H](O)[C@@H](N)[C@@H]1OCCCC | 99 | Non-Toxic |  |  |  |  |
| CCCCCCOC[C@H]1O[C@@H](O[C@@H]2[C@@H](O)[C@H](O[C@H]3O[C@H](CN)[C@@H](O)[C@H](O)[C@H]3O)[C@@H](N)C[C@H]2N)[C@H](O)[C@@H](N)[C@@H]1OCCCCCC | 99 | Non-Toxic |  |  |  |  |
| CCCCCCCCCOC[C@H]1O[C@@H](O[C@@H]2[C@@H](O)[C@H](O[C@H]3O[C@H](CN)[C@@H](O)[C@H](O)[C@H]3O)[C@@H](N)C[C@H]2N)[C@H](O)[C@@H](N)[C@@H]1OCCCCCCCCC | 99 | Non-Toxic |  |  |  |  |
| NC[C@H]1O[C@H](O[C@H]2[C@H](O)[C@@H](O[C@@H]3O[C@H](COCc4ccc5ccccc5c4)[C@@H](OCc4ccc5ccccc5c4)[C@H](N)[C@H]3O)[C@H](N)C[C@@H]2N)[C@H](O)[C@@H](O)[C@@H]1O | 94 |  |  | 40 to 60 | ≤ 20 |  |
| NC[C@H]1O[C@H](O[C@H]2[C@H](O)[C@@H](O[C@@H]3O[C@H](COCc4cccc5ccccc45)[C@@H](OCc4cccc5ccccc45)[C@H](N)[C@H]3O)[C@H](N)C[C@@H]2N)[C@H](O)[C@@H](O)[C@@H]1O | 94 | Non-Toxic |  |  |  | 64 (≈ 83.7 µM) |
| CCCCCCO[C@H]1[C@H](N)[C@@H](O)[C@H](O[C@@H]2[C@@H](O)[C@H](O[C@H]3O[C@H](CN)[C@@H](O)[C@H](O)[C@H]3O)[C@@H](N)C[C@H]2N)O[C@@H]1CO | 99 | Non-Toxic |  |  |  |  |
| Cc1ccc(COC[C@H]2O[C@@H](O[C@@H]3[C@@H](O)[C@H](O[C@H]4O[C@H](CN)[C@@H](O)[C@H](O)[C@H]4O)[C@@H](N)C[C@H]3N)[C@H](O)[C@@H](N)[C@@H]2OCc2ccc(C)cc2)cc1 | 94 | Non-Toxic |  |  |  |  |
| NC[C@H]1O[C@H](O[C@H]2[C@H](O)[C@@H](O[C@@H]3O[C@H](COCc4ccc(Cl)cc4)[C@@H](OCc4ccc(Cl)cc4)[C@H](N)[C@H]3O)[C@H](N)C[C@@H]2N)[C@H](O)[C@@H](O)[C@@H]1O | 94 | Non-Toxic |  |  |  |  |

From ChEMBL document CHEMBL4196120, “Inhibition of Connexin Hemichannels by New Amphiphilic Aminoglycosides without Antibiotic Activity” (ACS Med Chem Lett, 2018)
